Results from PubChem BioAssay (NCI).
Several values for one entry are separate records, joined by “and”; a condition that tells them apart may be missing. Equal values may be shown once.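 Five concentrations, 48 hours, 96-well plates. GI50: concentration for 50% inhibition of growth. The concentration for full growth arrest is given as TGI.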

Assays:
Test in all cases: NCI anticancer screen, dose series, 48 h
786-0 renal = system: 786-0 renal
A498 renal = system: A498 renal
A549 NSCLC = system: A549 NSCLC
ACHN renal = system: ACHN renal
BT-549 breast = system: BT-549 breast
CAKI-1 renal = system: CAKI-1 renal
CCRF-CEM leukemia = system: CCRF-CEM leukemia
COLO 205 colon = system: COLO 205 colon
DLD-1 colon = system: DLD-1 colon
DMS 114 small cell lung = system: DMS 114 small cell lung
DMS 273 small cell lung = system: DMS 273 small cell lung
DU-145 prostate = system: DU-145 prostate
EKVX NSCLC = system: EKVX NSCLC
HCC-2998 colon = system: HCC-2998 colon
HCT-116 colon = system: HCT-116 colon
HCT-15 colon = system: HCT-15 colon
HL-60(TB) leukemia = system: HL-60(TB) leukemia
HOP-18 NSCLC = system: HOP-18 NSCLC
HOP-62 NSCLC = system: HOP-62 NSCLC
HOP-92 NSCLC = system: HOP-92 NSCLC
HS 578T breast = system: HS 578T breast
HT29 colon = system: HT29 colon
IGROV1 ovarian = system: IGROV1 ovarian
K-562 leukemia = system: K-562 leukemia
KM12 colon = system: KM12 colon
KM20L2 colon = system: KM20L2 colon
LOX IMVI melanoma = system: LOX IMVI melanoma
LXFL 529 NSCLC = system: LXFL 529 NSCLC
M14 melanoma = system: M14 melanoma
M19-MEL melanoma = system: M19-MEL melanoma
MALME-3M melanoma = system: MALME-3M melanoma
MCF7 breast = system: MCF7 breast
MDA-MB-435 = system: MDA-MB-435
MDA-N = system: MDA-N
MOLT-4 leukemia = system: MOLT-4 leukemia
NCI-H226 lung = system: NCI-H226 lung
NCI-H23 lung = system: NCI-H23 lung
NCI-H460 lung = system: NCI-H460 lung
NCI-H522 lung = system: NCI-H522 lung
NCI/ADR-RES ovarian = system: NCI/ADR-RES ovarian
OVCAR-3 ovarian = system: OVCAR-3 ovarian
OVCAR-4 ovarian = system: OVCAR-4 ovarian
OVCAR-5 ovarian = system: OVCAR-5 ovarian
OVCAR-8 ovarian = system: OVCAR-8 ovarian
PC-3 prostate = system: PC-3 prostate
RPMI-8226 leukemia = system: RPMI-8226 leukemia
RXF 393 renal = system: RXF 393 renal
RXF-631 renal = system: RXF-631 renal
SF-268 CNS = system: SF-268 CNS
SF-295 CNS = system: SF-295 CNS
SF-539 CNS = system: SF-539 CNS
SK-MEL-2 melanoma = system: SK-MEL-2 melanoma
SK-MEL-28 melanoma = system: SK-MEL-28 melanoma
SK-MEL-5 melanoma = system: SK-MEL-5 melanoma
SK-OV-3 ovarian = system: SK-OV-3 ovarian
SN12C renal = system: SN12C renal
SNB-19 CNS = system: SNB-19 CNS
SNB-75 CNS = system: SNB-75 CNS
SR leukemia = system: SR leukemia
SW-620 colon = system: SW-620 colon
T-47D breast = system: T-47D breast
TK-10 renal = system: TK-10 renal
U251 CNS = system: U251 CNS
UACC-257 melanoma = system: UACC-257 melanoma
UACC-62 melanoma = system: UACC-62 melanoma
UO-31 renal = system: UO-31 renal
XF 498 CNS = system: XF 498 CNS
SNB-78 CNS = system: SNB-78 CNS

Q: What does the source list for `CCOC(=O)NC(=O)c1cn(CCCOC(=O)CCCCCCCCC(=O)OCCCn2cc(C(=O)NC(=O)OCC)c(=O)n(C)c2=O)c(=O)n(C)c1=O`?
A: TGI (786-0 renal): > 100000 nM; TGI (A498 renal): > 100000 nM; TGI (A549 NSCLC): > 100000 nM; TGI (ACHN renal): > 100000 nM; TGI (BT-549 breast): > 100000 nM; TGI (CAKI-1 renal): > 100000 nM; TGI (CCRF-CEM leukemia): > 46400 nM; TGI (COLO 205 colon): > 100000 nM; TGI (DLD-1 colon): > 100000 nM; TGI (DMS 114 small cell lung): > 100000 nM; TGI (DMS 273 small cell lung): > 100000 nM; TGI (DU-145 prostate): > 100000 nM; TGI (EKVX NSCLC): > 100000 nM; TGI (HCC-2998 colon): > 100000 nM; TGI (HCT-116 colon): > 100000 nM; TGI (HCT-15 colon): > 100000 nM; TGI (HL-60(TB) leukemia): > 100000 nM; TGI (HOP-18 NSCLC): > 100000 nM; TGI (HOP-62 NSCLC): > 96600 nM; TGI (HOP-92 NSCLC): > 100000 nM; TGI (HS 578T breast): > 100000 nM; TGI (HT29 colon): > 100000 nM; TGI (IGROV1 ovarian): > 100000 nM; TGI (K-562 leukemia): > 100000 nM; TGI (KM12 colon): > 100000 nM; TGI (KM20L2 colon): > 100000 nM; TGI (LOX IMVI melanoma): > 100000 nM; TGI (LXFL 529 NSCLC): > 100000 nM; TGI (M14 melanoma): > 100000 nM; TGI (M19-MEL melanoma): > 100000 nM; TGI (MALME-3M melanoma): > 100000 nM; TGI (MCF7 breast): > 100000 nM; TGI (MDA-MB-435): > 100000 nM; TGI (MDA-N): > 100000 nM; TGI (MOLT-4 leukemia): > 100000 nM; TGI (NCI-H226 lung): > 100000 nM; TGI (NCI-H23 lung): > 100000 nM; TGI (NCI-H460 lung): > 100000 nM; TGI (NCI-H522 lung): > 100000 nM; TGI (NCI/ADR-RES ovarian): > 100000 nM; TGI (OVCAR-3 ovarian): > 100000 nM; TGI (OVCAR-4 ovarian): > 100000 nM; TGI (OVCAR-5 ovarian): > 100000 nM; TGI (OVCAR-8 ovarian): > 100000 nM; TGI (PC-3 prostate): > 100000 nM; TGI (RPMI-8226 leukemia): > 100000 nM; TGI (RXF 393 renal): > 100000 nM; TGI (RXF-631 renal): > 100000 nM; TGI (SF-268 CNS): > 100000 nM; TGI (SF-295 CNS): > 100000 nM; TGI (SF-539 CNS): > 100000 nM; TGI (SK-MEL-2 melanoma): > 100000 nM; TGI (SK-MEL-28 melanoma): > 100000 nM; TGI (SK-MEL-5 melanoma): > 100000 nM; TGI (SK-OV-3 ovarian): > 100000 nM; TGI (SN12C renal): > 100000 nM; TGI (SNB-19 CNS): > 100000 nM; TGI (SNB-75 CNS): > 77800 nM; TGI (SR leukemia): > 100000 nM; TGI (SW-620 colon): > 100000 nM; TGI (T-47D breast): > 100000 nM; TGI (TK-10 renal): > 100000 nM; TGI (U251 CNS): > 100000 nM; TGI (UACC-257 melanoma): > 100000 nM; TGI (UACC-62 melanoma): > 100000 nM; TGI (UO-31 renal): > 100000 nM; TGI (XF 498 CNS): > 93800 nM

Q: Which results are given for `COc1cc(CN[C@H]2CCc3cc(OC)c(OC)c(OC)c3-c3ccc(SC)c(=O)cc32)cc(OC)c1`?
A: GI50 (786-0 renal): 30.7 nM; TGI (786-0 renal): 30800 nM; TGI (A498 renal): 167 nM; TGI (A549 NSCLC): > 100000 nM; GI50 (ACHN renal): 66.2 nM; TGI (ACHN renal): > 100000 nM; GI50 (CAKI-1 renal): 28.2 nM; TGI (CAKI-1 renal): > 100000 nM; GI50 (COLO 205 colon): 14.5 nM; TGI (COLO 205 colon): 105 nM and 81.6 nM; GI50 (DLD-1 colon): 23.2 nM; TGI (DLD-1 colon): > 100000 nM; GI50 (DMS 114 small cell lung): 16.6 nM; TGI (DMS 114 small cell lung): 50.5 nM and 61.3 nM; GI50 (DMS 273 small cell lung): < 10 nM; TGI (DMS 273 small cell lung): 140 nM; GI50 (EKVX NSCLC): 28.7 nM; TGI (EKVX NSCLC): > 100000 nM; GI50 (HCC-2998 colon): 20.4 nM; TGI (HCC-2998 colon): 108 nM and 74.8 nM; GI50 (HCT-116 colon): < 10 nM; TGI (HCT-116 colon): 174 nM and 127 nM; TGI (HCT-15 colon): 239 nM; GI50 (HL-60(TB) leukemia): 24 nM; TGI (HL-60(TB) leukemia): > 100000 nM; GI50 (HOP-18 NSCLC): > 100000 nM; TGI (HOP-18 NSCLC): > 100000 nM; GI50 (HOP-62 NSCLC): 81.4 nM; TGI (HOP-62 NSCLC): > 100000 nM; GI50 (HOP-92 NSCLC): 207 nM; TGI (HOP-92 NSCLC): 68700 nM; GI50 (HT29 colon): < 10 nM; TGI (HT29 colon): 62.7 nM and 25.1 nM; GI50 (IGROV1 ovarian): 69 nM; TGI (IGROV1 ovarian): > 100000 nM; TGI (K-562 leukemia): 10400 nM; GI50 (KM12 colon): < 10 nM; TGI (KM12 colon): 482 nM and 137 nM; GI50 (KM20L2 colon): 13 nM; TGI (KM20L2 colon): 42.5 nM and 30.7 nM; GI50 (LOX IMVI melanoma): 17.3 nM; GI50 (LXFL 529 NSCLC): 21.4 nM; TGI (LXFL 529 NSCLC): > 100000 nM; GI50 (MALME-3M melanoma): < 10 nM; TGI (MALME-3M melanoma): > 100000 nM; GI50 (MOLT-4 leukemia): 47.6 nM; TGI (MOLT-4 leukemia): 85500 nM; GI50 (NCI-H226 lung): 23.1 nM; TGI (NCI-H226 lung): 95 nM and 91.9 nM; GI50 (NCI-H23 lung): 22.8 nM; TGI (NCI-H23 lung): 78.6 nM and 492 nM; GI50 (NCI-H460 lung): 31 nM; GI50 (NCI-H522 lung): 21.2 nM; TGI (NCI-H522 lung): 67.7 nM and 52 nM; GI50 (OVCAR-3 ovarian): 14.5 nM; TGI (OVCAR-3 ovarian): 127 nM and 44.4 nM; TGI (OVCAR-4 ovarian): > 100000 nM; GI50 (OVCAR-5 ovarian): > 100000 nM; TGI (OVCAR-5 ovarian): > 100000 nM; GI50 (OVCAR-8 ovarian): 40 nM; TGI (OVCAR-8 ovarian): 31800 nM; TGI (RPMI-8226 leukemia): 24200 nM; TGI (RXF 393 renal): 37.2 nM; TGI (RXF-631 renal): 358 nM; GI50 (SF-268 CNS): 24.8 nM; GI50 (SF-295 CNS): 18.7 nM; GI50 (SF-539 CNS): 17.3 nM; TGI (SF-539 CNS): 45.5 nM and 42.4 nM; GI50 (SK-MEL-2 melanoma): 18.4 nM; TGI (SK-MEL-2 melanoma): 474 nM; GI50 (SK-MEL-28 melanoma): < 10 nM; TGI (SK-MEL-28 melanoma): > 100000 nM; GI50 (SK-OV-3 ovarian): 17.1 nM; GI50 (SN12C renal): 62.3 nM; TGI (SN12C renal): > 100000 nM; TGI (SNB-19 CNS): > 100000 nM; TGI (SNB-75 CNS): 64.1 nM; GI50 (SNB-78 CNS): < 10 nM; TGI (SNB-78 CNS): > 100000 nM; TGI (SR leukemia): 19400 nM; GI50 (SW-620 colon): < 10 nM; TGI (SW-620 colon): > 100000 nM; GI50 (TK-10 renal): 41.2 nM; TGI (TK-10 renal): 77100 nM; GI50 (U251 CNS): 24.7 nM; TGI (U251 CNS): 87.3 nM and 63.5 nM; GI50 (UACC-257 melanoma): 103 nM; TGI (UACC-257 melanoma): > 100000 nM; TGI (UACC-62 melanoma): 60.5 nM; TGI (XF 498 CNS): 977 nM
